Measured values published in US20220265657A1, “ADMINISTRATION METHOD AND DOSAGE REGIMEN FOR TREATMENT OF NEURODEGENERATIVE DISEASES USING TRAMETINIB AND MARKERS” (GENUV INC., priority 2019, published 2022).
Read-outs that look alike come from different tables or passages of the source.

Legend:
5XFAD mice [1] = experiment: Western blot of brain cortex lysates; type: in vivo
Experimental: (§1) Trametinib treatment: Trametinib (Medchemexpress, Monmouth Junction, N.J.) was micronized and suspended in the vehicle containing 5% mannitol, 1.5% hydroxypropyl methylcellulose and 0.2% sodium lauryl sulfate. For pharmacokinetic analysis, 0.05, 0.2 and 0.8 mg/kg of trametinib were orally administered to 7-week-old normal mice (ICR, n=5 per group) as a single administration. […] For studies on the change in pERK expression in normal mice and whole cell RNA sequencing study, 0.1 mg/kg/day of trametinib (in 4% DMSO+96% corn oil) was orally administered to 6-week old C57BL/6 mice (n=3 per group). Mice were sacrificed after 1, 2, 3, or 4 weeks of administration. 5XFAD mice (male, n=7˜10 per group) were divided into vehicle and trametinib treated groups. 12-month old mice received vehicle or 0.1 mg/kg of trametinib for 1 month by oral gavage once a day (These mice are referred to as “13-month old 5XFAD mice” in the Examples). […] Blood was obtained after completion of treatment.
Lysates were centrifuged at 13,000 rpm for 20 min at 4° C., and the protein content in the supernatant was determined using the Bradford assay (Bio-rad, Hercules, Calif.). For subcellular fractionation, cells were lysed with lysis buffer (250 mM Sucrose, 20 mM HEPES, pH 7.4, 10 mM KCl, 1.5 mM MgCl2, 1 mM EGTA, 1 mM EDTA, 1 mM DTT) containing protease inhibitor for 30 min on ice, followed by centrifugation at 720 g for 5 min at 4° C. Supernatants were centrifuged at 15,000 rpm for 10 min at 4° C., and the resulting supernatant was used as the cytosol fraction. After centrifugation at 720 g for 5 min, pellets were washed with lysis buffer and dissolved in nuclear lysis buffer (50 mM Tris HCl, pH 8.0, 150 mM NaCl, 1% NP40, 0.5% sodium deoxycholate, 0.1% SDS, 10% glycerol) as the nuclear fraction. Protein from each sample was subjected to 8%˜15% SDS-PAGE, and the resolved proteins were transferred to nitrocellulose or polyvinylidene fluoride membrane. […] The detected signals were quantified using a LAS-4000 system (Fuji Film, Tokyo, Japan).

5XFAD mice [2] = experiment: Immunofluorescence of active caspase 3, LC3 and LAMP1 in cortex layer V; type: in vivo; conditions: 5XFAD mice cortex
Experimental: as §1
(§2) Brains were dissected and analyzed by immunohistochemistry. For paraffin sections, brain hemispheres were embedded sagittally in paraffin and prepared into sections of […] slices. […] The sections were counterstained with DAPI. […] NeuN-positive and active caspase 3-positive cells from cortex layer V were counted using Icy micromanager program (Institut Pasteur, Paris, France).

5XFAD mice [3] = experiment: LTP recording (EPSCs) at hippocampal CA1 region; type: in vivo; conditions: 8-month old 5XFAD mice, oral administration
5XFAD mice [4] = conditions: 8-month old 5XFAD mice
5XFAD mice [5] = conditions: for decrease of plasma cathepsin B level compared to vehicle treated 5XFAD mice: 8-month-old 5XFAD mice, 3 months oral
5XFAD mice [6] = experiment: Immunofluorescence staining of Map2, Tau and swollen axons in cortex layer V; type: in vivo
Experimental: as §1, §2

primary cortical neurons = experiment: Western blot of primary cortical neurons; type: cell-based, ICR mice
Experimental: Lysates were centrifuged at 13,000 rpm for 20 min at 4° C., and the protein content in the supernatant was determined using the Bradford assay (Bio-rad, Hercules, Calif.). For subcellular fractionation, cells were lysed with lysis buffer (250 mM Sucrose, 20 mM HEPES, pH 7.4, 10 mM KCl, 1.5 mM MgCl2, 1 mM EGTA, 1 mM EDTA, 1 mM DTT) containing protease inhibitor for 30 min on ice, followed by centrifugation at 720 g for 5 min at 4° C. Supernatants were centrifuged at 15,000 rpm for 10 min at 4° C., and the resulting supernatant was used as the cytosol fraction. After centrifugation at 720 g for 5 min, pellets were washed with lysis buffer and dissolved in nuclear lysis buffer (50 mM Tris HCl, pH 8.0, 150 mM NaCl, 1% NP40, 0.5% sodium deoxycholate, 0.1% SDS, 10% glycerol) as the nuclear fraction. Protein from each sample was subjected to 8%˜15% SDS-PAGE, and the resolved proteins were transferred to nitrocellulose or polyvinylidene fluoride membrane. The membranes were blocked with 5% nonfat milk powder in Tris-buffered saline/Tween 20 (TBST) for 1 h at room temperature, then incubated with anti-phospho-ERK (Cell signaling), anti-ERK (Cell signaling), anti-LAMP1 (Abcam), anti-LC3 (Cell signaling), anti-cathepsin B (Cell signaling), anti-p62 (Cell signaling), anti-p62 (5114, Cell signaling), anti-phospho-mTOR (5536, Cell signaling), anti-mTOR (2983, Cell signaling), anti-phospho-ULK1 (14202, Cell signaling), anti-ULK1 (8054, Cell signaling), anti-TFEB (852501, Biolegend), and anti-GAPDH (Cell signaling) overnight at 4° C.

With `CC(=O)Nc1cccc(-n2c(=O)n(C3CC3)c(=O)c3c(Nc4ccc(I)cc4F)n(C)c(=O)c(C)c32)c1` [trametinib] the “autophagosome marker LC3-II level” value (5XFAD mice [1]; 8-month old 5XFAD mice brain) was “further increased”, the “level of mature cathepsin B” value (5XFAD mice [1]; 8-month old 5XFAD mice brain) was “seen to increase” and the “expression of presynaptic marker synaptophysin and postsynaptic marker PSD-95” value (5XFAD mice [1]; brain cortex lysates of 5XFAD mice) was “Increased expression”. For the same compound, the LC3-LAMP1 co-stained cells (5XFAD mice [2]) was “Increased LC3-LAMP1 co-stained cells”, the “apoptosis (active caspase 3)” value (5XFAD mice [2]) was “reduced apoptosis” and the “long-term potentiation (LTP), EPSC slope” value (5XFAD mice [3]) was “recovered in the trametinib-orally administered animals to a level almost comparable to that of the wild type control”. For the same compound, the MBP levels (5XFAD mice [4]; 0.05 mg/kg/day) was “restored back to levels comparable to that of wild type mice”, the MBP levels (5XFAD mice [4]; 0.1 mg/kg/day) was “restored back to levels comparable to that of wild type mice” and the “decrease of plasma cathepsin B level compared to vehicle treated 5XFAD mice” value (5XFAD mice [5]; 0.05 mg/kg/day) was 56.16%. For the same compound, the “decrease of plasma cathepsin B level compared to vehicle treated 5XFAD mice” value (5XFAD mice [5]; 0.1 mg/kg/day) was 99.2%, the “plasma cathepsin B level compared to 5XFAD-vehicle group” value (5XFAD mice [5]; 13-month-old 5XFAD mice, 0.1 mg/kg/day, 1 month oral) was “decreasing trend” and the bulb-like swollen axons (5XFAD mice [6]; 5XFAD mice, compared to vehicle-administered group) was “significantly reduced”. For the same compound, the “dendritic and axonal lengths (Map2, Tau)” value (5XFAD mice [6]; cortex of 8-month-old and 13-month-old 5XFAD mice) was “recovery of dendritic and axonal lengths”, the “decrease of p-mTOR/mTOR ratio compared to Aβ1-42 treated alone group” value (primary cortical neurons; 100 nM, co-treated with Aβ1-42) was 67% and the “decrease of pULK1(S757) to total ULK1 ratio compared to Aβ1-42 treated alone neurons” value (primary cortical neurons; co-treated with Aβ1-42) was 29%. For the same compound, the “increase of mature cathepsin B level compared to vehicle treated control (CTL)” value (primary cortical neurons; primary cortical neurons) was 54% and the “increase of mature cathepsin B level compared to Aβ1-42 treated alone group” value (primary cortical neurons; primary cortical neurons treated with Aβ1-42 oligomers) was 73%.
